Test results as given in ChEMBL document CHEMBL1133217, “Purpurinimides as photosensitizers: effect of the presence and position of the substituents in the in vivo photodynamic efficacy” (Bioorg Med Chem Lett, 2000).

Tests used:
[1] = Partition coefficient (logP); format: physicochemical; conditions: octanol/water
Mus musculus [2] = assay: In vivo antitumor activity was determined after administration of compound (1.0 umol/kg) in mice bearing RIF tumors exposed to laser light (135 J/cm**2) on day 1-2; No rseponse; format: functional, organism-based
Mus musculus [3] = assay: In vivo antitumor activity was determined after administration of compound (1.0 umol/kg) in mice bearing RIF tumors exposed to laser light (135 J/cm**2) on day 14; No rseponse; format: functional, organism-based
Mus musculus [4] = assay: In vivo antitumor activity was determined after administration of compound (1.0 umol/kg) in mice bearing RIF tumors exposed to laser light (135 J/cm**2) on day 21; No rseponse; format: functional, organism-based
Mus musculus [5] = assay: In vivo antitumor activity was determined after administration of compound (1.0 umol/kg) in mice bearing RIF tumors exposed to laser light (135 J/cm**2) on day 30; No rseponse; format: functional, organism-based
Mus musculus [6] = assay: In vivo antitumor activity was determined after administration of compound (1.0 umol/kg) in mice bearing RIF tumors exposed to laser light (135 J/cm**2) on day 7; No rseponse; format: functional, organism-based
Mus musculus [7] = assay: In vivo antitumor activity was determined after administration of compound (1.0 umol/kg) in mice bearing RIF tumors exposed to laser light (135 J/cm**2) on day 1-2; format: functional
Mus musculus [8] = assay: In vivo antitumor activity was determined after administration of compound (1.0 umol/kg) in mice bearing RIF tumors exposed to laser light (135 J/cm**2) on day 14; format: functional
Mus musculus [9] = assay: In vivo antitumor activity was determined after administration of compound (1.0 umol/kg) in mice bearing RIF tumors exposed to laser light (135 J/cm**2) on day 21; format: functional
Mus musculus [10] = assay: In vivo antitumor activity was determined after administration of compound (1.0 umol/kg) in mice bearing RIF tumors exposed to laser light (135 J/cm**2) on day 30; format: functional
Mus musculus [11] = assay: In vivo antitumor activity was determined after administration of compound (1.0 umol/kg) in mice bearing RIF tumors exposed to laser light (135 J/cm**2) on day 7; format: functional
Mus musculus [12] = assay: In vivo antitumor activity was determined after administration of compound (1.0 umol/kg) in mice bearing RIF tumors exposed to laser light (135 J/cm**2) on day 7; Tumor regrowth; format: functional, organism-based

## CCCCCCCCOCC1=C(C)c2cc3nc(c4c5[nH]c(cc6[nH]c(cc1n2)c(C)c6CC)c(C)c5C(=O)N(CCCCCC)C4=O)[C@@H](CCC(=O)OC)[C@@H]3C
[1]
  logP: 10.8
Mus musculus [2]
  Tumor cure: No response
Mus musculus [3]
  Tumor cure: No response
Mus musculus [4]
  Tumor cure: No response
Mus musculus [5]
  Tumor cure: No response
Mus musculus [6]
  Tumor cure: No response

## CCCCCCCOC(C)C1=C(C)c2cc3nc(c4c5[nH]c(cc6[nH]c(cc1n2)c(C)c6CC)c(C)c5C(=O)N(CCCCCC)C4=O)[C@@H](CCC(=O)OC)[C@@H]3C (some centres not stated)
[1]
  logP: 10.83
Mus musculus [7]
  Tumor cure: 100%
Mus musculus [8]
  Tumor cure: 100%
Mus musculus [9]
  Tumor cure: 100%
Mus musculus [10]
  Tumor cure: 100%
Mus musculus [11]
  Tumor cure: 100%

## CCCCCCCOC(C)c1c(C)c2cc3[nH]c(cc4nc(c5c6nc(cc1[nH]2)C(C)=C6C(=O)N(CCCCCC)C5=O)[C@@H](CCC(=O)OC)[C@@H]4C)c(C)c3CC (some centres not stated)
[1]
  logP: 10.83
Mus musculus [2]
  Tumor cure: No response
Mus musculus [3]
  Tumor cure: No response
Mus musculus [4]
  Tumor cure: No response
Mus musculus [5]
  Tumor cure: No response
Mus musculus [6]
  Tumor cure: No response

## CCCCCCCOCc1c2nc(c3c4nc(cc5[nH]c(cc6[nH]c1c(C)c6CC)c(C)c5CC)C(C)=C4C(=O)N(CCCCCC)C3=O)[C@@H](CCC(=O)OC)[C@@H]2C
[1]
  logP: 10.78
Mus musculus [7]
  Tumor cure: 50%
Mus musculus [8]
  Tumor cure: 50%
Mus musculus [9]
  Tumor cure: 50%
Mus musculus [10]
  Tumor cure: 50%
Mus musculus [11]
  Tumor cure: 50%

## CCCCCCCCCCN1C(=O)c2c3nc(cc4nc(cc5[nH]c(cc6[nH]c2c(c6C)C1=O)c(CC)c5C)C(CC)=C4C)[C@@H](C)[C@@H]3CCC(=O)OC
[1]
  logP: 10.62
Mus musculus [7]
  Tumor cure: 100%
Mus musculus [12]
  Tumor cure: Tumour regrowth
